# In ChEMBL document CHEMBL1145592, “Pleuromutilin derivatives having a purine ring. Part 1: new compounds with promising antibacterial activity against resistant Gram-positive pathogens” (2008):
# Experiments:
# Type in all cases: functional
# [1] = tested on: Streptococcus pneumoniae; test: Antibacterial activity against penicillin-susceptible Streptococcus pneumoniae 1
# [2] = tested on: Staphylococcus aureus; test: Antibacterial activity against methicillin-resistant Staphylococcus aureus KMP9
# [3] = tested on: Enterococcus faecium; test: Antibacterial activity against vancomycin-resistant Enterococcus faecium KU1778
# [4] = tested on: Staphylococcus aureus; test: Antibacterial activity against methicillin-susceptible Staphylococcus aureus Smith
# [5] = tested on: Staphylococcus aureus; test: Antibacterial activity against methicillin-susceptible Staphylococcus aureus Smith infected iv dosed mouse 1 hr after inoculation
# [6] = tested on: Streptococcus pneumoniae; test: Antibacterial activity against penicillin-susceptible Streptococcus pneumoniae ATCC 49619
# [7] = tested on: Moraxella catarrhalis; test: Antibacterial activity against Moraxella catarrhalis K1209
# [8] = tested on: Streptococcus pneumoniae; test: Antibacterial activity against penicillin-resistant Streptococcus pneumoniae KT2524
# [9] = tested on: Haemophilus influenzae; test: Antibacterial activity against Haemophilus influenzae TH13
# [10] = tested on: Streptococcus pyogenes; test: Antibacterial activity against Streptococcus pyogenes ATCC 12344
SMILES,MIC [1] [µg/mL],MIC [2] [µg/mL],MIC [3] [µg/mL],MIC [4] [µg/mL],ED50 [5] [mg/kg],MIC [6] [µg/mL],MIC [7] [µg/mL],MIC [8] [µg/mL],MIC [9] [µg/mL],MIC [10] [µg/mL]
C=C[C@]1(C)C[C@@H](OC(=O)CSC2CCN(C(=O)CCn3cnc4cncnc43)CC2)[C@]2(C)[C@H](C)CC[C@]3(CCC(=O)[C@@H]32)[C@@H](C)[C@@H]1O,0.1,0.05,0.05,0.05,> 3.13,–,–,–,–,–
C=C[C@]1(C)C[C@@H](OC(=O)CSC2CCN(C(=O)CCn3cnc4c(N)ncnc43)CC2)[C@]2(C)[C@H](C)CC[C@]3(CCC(=O)[C@@H]32)[C@@H](C)[C@@H]1O,0.78,0.39,0.39,0.2,> 3.13,–,–,–,–,–
C=C[C@]1(C)C[C@@H](OC(=O)CSC2CCN(C(=O)CCn3cnc4ncncc43)CC2)[C@]2(C)[C@H](C)CC[C@]3(CCC(=O)[C@@H]32)[C@@H](C)[C@@H]1O,0.1,0.1,0.1,0.1,> 3.13,–,–,–,–,–
C=C[C@]1(C)C[C@@H](OC(=O)CSC2CCN(C(=O)CCn3cnc4c(N)nc(N)nc43)CC2)[C@]2(C)[C@H](C)CC[C@]3(CCC(=O)[C@@H]32)[C@@H](C)[C@@H]1O,0.025,0.1,0.05,0.05,> 3.13,–,–,–,–,–
C=C[C@]1(C)C[C@@H](OC(=O)CSC2CCN(C(=O)CCn3cnc4c(N5CCOCC5)nc(N)nc43)CC2)[C@]2(C)[C@H](C)CC[C@]3(CCC(=O)[C@@H]32)[C@@H](C)[C@@H]1O,0.1,0.2,0.2,0.2,–,–,–,–,–,–
C=C[C@]1(C)C[C@@H](OC(=O)CSC2CCN(C(=O)/C=C/n3cnc4cnc(N)nc43)CC2)[C@]2(C)[C@H](C)CC[C@]3(CCC(=O)[C@@H]32)[C@@H](C)[C@@H]1O,0.39,0.2,0.2,0.1,> 3.13,–,–,–,–,–
C=C[C@]1(C)C[C@@H](OC(=O)CSC2CCN(C(=O)CCn3cnc4c(N(C)C)nc(N)nc43)CC2)[C@]2(C)[C@H](C)CC[C@]3(CCC(=O)[C@@H]32)[C@@H](C)[C@@H]1O,0.05,0.1,0.1,0.1,> 3.13,–,–,–,–,–
C=C[C@]1(C)C[C@@H](OC(=O)CSC2CCN(C(=O)CCn3cnc4c(N5CCCC5)nc(N)nc43)CC2)[C@]2(C)[C@H](C)CC[C@]3(CCC(=O)[C@@H]32)[C@@H](C)[C@@H]1O,0.2,0.39,0.39,0.39,> 3.13,–,–,–,–,–
C=C[C@]1(C)C[C@@H](OC(=O)CSC2CCN(C(=O)Cn3cnc4cncnc43)CC2)[C@]2(C)[C@H](C)CC[C@]3(CCC(=O)[C@@H]32)[C@@H](C)[C@@H]1O,1.56,0.2,0.2,0.2,–,–,–,–,–,–
C=C[C@]1(C)C[C@@H](OC(=O)CSC2CCN(C(=O)CCn3cnc4c(NC)nc(N)nc43)CC2)[C@]2(C)[C@H](C)CC[C@]3(CCC(=O)[C@@H]32)[C@@H](C)[C@@H]1O,0.025,0.2,0.1,0.1,> 3.13,–,–,–,–,–
C=C[C@]1(C)C[C@@H](OC(=O)CSC2CCN(C(=O)CCCn3cnc4cnc(N)nc43)CC2)[C@]2(C)[C@H](C)CC[C@]3(CCC(=O)[C@@H]32)[C@@H](C)[C@@H]1O,0.78,0.2,0.1,0.1,> 3.13,–,–,–,–,–
C=C[C@]1(C)C[C@@H](OC(=O)CSC2CCN(C(=O)CCn3cnc4c(N5CCNC(C)C5)nc(N)nc43)CC2)[C@]2(C)[C@H](C)CC[C@]3(CCC(=O)[C@@H]32)[C@@H](C)[C@@H]1O (some centres not stated),–,0.25,0.125,0.25,2.21,0.063,0.063,0.063,2,0.032
